Patent US4038410A, “Nitroimidazole derivatives and process for the preparation thereof” (Schering Aktiengesellschaft, priority 1974, dated 1977)
≈ marks a conversion by molar mass, not a printed value. Where two headings read alike, the source gives them in different places.

Legend:
Trichomonas vaginalis [1] = test: Minimum inhibitory concentration against Trichomonas vaginalis; assay type: cell-based
Entamoeba histolytica = test: Minimum inhibitory concentration against Entamoeba histolytica; assay type: cell-based; conditions: Table II; for MIC: read-out: Minimum Inhibitory Concentration (MIC) in μg./ml. Against Entamoeba hist.
Trichomonas vaginalis [2] = conditions: literature: C. Cosar, Arzneimittelforschung 16, 23 (1966); French Pat. No. 1,212,028; cited from earlier work
[3] = Table I, read-out: Minimum Inhibitory Concentration (MIC) in μg./ml. Against Trich. vag.
[4] = Table II, read-out: Minimum Inhibitory Concentration (MIC) in μg./ml. Against Trich vag.

MIC (Entamoeba histolytica) [µg/mL]	MIC (Trichomonas vaginalis [1]; [4]) [µg/mL]	Compound	other results
–	–	Cn1nccc1-c1ncc([N+](=O)[O-])n1C [1-Methyl-5-(1-methyl-5-nitro-2-imidazolyl)-pyrazole]	MIC (Trichomonas vaginalis [1]; [3]): 0.05 µg/mL (≈ 0.241 µM)
12.5 (≈ 44.1 µM)	0.1 (≈ 0.353 µM)	Cc1c(-c2ncc([N+](=O)[O-])n2C)cnn1-c1ccccc1 [5-Methyl-4-(1-methyl-5-nitro-2-imidazolyl)-1-phenylpyrazole]	–
–	–	CN(C)C=CC(=O)c1ncc([N+](=O)[O-])n1C [3-Dimethylamino-1-(1-methyl-5-nitro-2-imidazolyl)-2-propenone]	MIC (Trichomonas vaginalis [1]; [3]): 0.1 µg/mL (≈ 0.446 µM)
–	0.2 (≈ 0.638 µM)	COc1ccc(-n2ncc(-c3ncc([N+](=O)[O-])n3C)c2C)cc1 [1-p-Anisyl-5-methyl-4-(1-methyl-5-nitro-2-imidazolyl)-pyrazole]	–
12.5 (≈ 60.3 µM)	0.2 (≈ 0.965 µM)	Cc1[nH]ncc1-c1ncc([N+](=O)[O-])n1C [3(5)-Methyl-4-(1-methyl-5-nitro-2-imidazolyl)-pyrazole]	–
50 (≈ 199 µM)	0.2 (≈ 0.796 µM)	Cc1c(-c2ncc([N+](=O)[O-])n2C)cnn1CCO [2-[5-Methyl-4-(1-methyl-5-nitro-2-imidazolyl)-pyrazolyl]-ethanol]	–
–	–	Mixture of 1,3-Dimethyl-4-(1-methyl-5-nitro-2-imidazolyl)-pyrazole and 1,5-Dimethyl-4-(1-methyl-5-nitro-2-imidazolyl)-pyrazole	Minimum Inhibitory Concentration (MIC) in μg./ml. Against Entamoeba hist. (Entamoeba histolytica): 12.5 µg/mL; Minimum Inhibitory Concentration (MIC) in μg./ml. Against Trich vag. (Trichomonas vaginalis [1]; Table II): 0.1 µg/mL
–	0.2 (≈ 0.629 µM)	Cc1c(-c2ncc([N+](=O)[O-])n2C)cnn1-c1ccc(Cl)cc1 [1-(4-Chlorophenyl)-5-methyl-4-(1-methyl-5-nitro-2-imidazolyl)-pyrazole]	–
> 100	1.6 (≈ 9.35 µM)	Cc1ncc([N+](=O)[O-])n1CCO [Metronidazole, 5-nitro-2-methyl-1-(2-hydroxyethyl)-imidazole, reference compound]	effective against Trichomonas vaginalis (Trichomonas vaginalis [2]): effective; MIC (Trichomonas vaginalis [1]; [3]): 1.6 µg/mL (≈ 9.35 µM)
–	–	Mixture of 5-Methyl-4-(1-methyl-5-nitro-2-imidazolyl)-isoxazole and 3-Methyl-4-(1-methyl-5-nitro-2-imidazolyl)-isoxazole	Minimum Inhibitory Concentration (MIC) in μg./ml. Against Entamoeba hist. (Entamoeba histolytica): 50 µg/mL; Minimum Inhibitory Concentration (MIC) in μg./ml. Against Trich vag. (Trichomonas vaginalis [1]; Table II): 0.2 µg/mL
–	0.4 (≈ 1.4 µM)	Cc1nc(-c2ccco2)ncc1-c1ncc([N+](=O)[O-])n1C [2-(2-Furyl)-4-methyl-5-(1-methyl-5-nitro-2-imidazolyl)-pyrimidine]	–
–	–	Cn1c([N+](=O)[O-])cnc1-c1cc[nH]n1 [3-(1-Methyl-5-nitro-2-imidazolyl)-pyrazole]	MIC (Trichomonas vaginalis [1]; [3]): 0.1 µg/mL (≈ 0.518 µM)
–	0.1 (≈ 0.427 µM)	Cc1nc(N)ncc1-c1ncc([N+](=O)[O-])n1C [4-Methyl-5-(1-methyl-5-nitro-2-imidazolyl)-pyrimidine-2-amine]	–

Compound	MIC (Entamoeba histolytica) [µg/mL]	MIC (Trichomonas vaginalis [1]; [4]) [µg/mL]	other results
Cc1c(-c2ncc([N+](=O)[O-])n2C)cnn1-c1ccc([N+](=O)[O-])cc1 [5-Methyl-4-(1-methyl-5-nitro-2-imidazolyl)-1-(4-nitrophenyl)-pyrazole]	–	0.4 (≈ 1.22 µM)	–
Cc1nn([N+](=O)[O-])cc1-c1ncc([N+](=O)[O-])n1C [3-Methyl-4-(1-methyl-5-nitro-2-imidazolyl)-1-nitropyrazole]	25 (≈ 99.1 µM)	0.4 (≈ 1.59 µM)	–
